In patent US5968952A, “Farnesyl transferase inhibiting 2-quinolone derivatives” (Janssen Pharmaceutica, N.V., priority 1995, dated 1999) one finds IC50 data, which are given here for 38 compounds.

For the first assay, the target named is T1, Human farnesyl protein transferase (Homo sapiens, UniProt P49354+P49356).
T1 construct: were used as a source of human enzyme; endogenous in cells; host or cells: Kirsten virus transformed human osteosarcoma (KHOS) cells (ATCC), grown as monolayers or as solid tumors in nude mice; ammonium sulfate fraction and Q Sepharose pool
The experiment in a line: In Vitro Assay for Inhibition of Farnesyl Protein Transferase ([3H] Scintillation Proximity Assay). It is filed as biochemical. As to conditions: Table 7; human enzyme from KHOS cells; biotinylated lamin B peptide substrate; 60 min, 37° C.; read-out: IC50 (concentration of test compound producing 50% inhibition of enzyme activity). As to the method:
In Vitro Assay for Inhibition of Farnesyl Protein Transferase Human farnesyl protein transferase was prepared essentially as described ([…] al., Methods: A Companion to Methods in Enzymology vol 1, 241-245, 1990). Kirsten virus transformed human osteosarcoma (KHOS) cells (American Type Culture Collection, Rockvill, Md., USA) grown as solid tumors in nude mice or grown as monolayer cell cultures were used as a source of human enzyme. Briefly, cells or tumors were homogenized in buffer containing 50 mM Tris, 1 mM EDTA, 1 mM EGTA and 0.2 mM phenylmethylsulfonylfluoride (pH 7.5). The homogenates were centrifuged 28,000× g for 60 min and the supernatants collected. A 30-50% ammonium sulfate […] prepared, and the resulting precipitate was resuspended in a small (10 to 20 ml) volume of dialysis buffer containing 20 mM Tris, 1 mM dithiothreitol and 20 μM ZnCl2. The ammonium sulfate fraction was dialyzed overnight against two changes of the same buffer. The dialyzed material was applied to a 10×1 cm Q Fast Flow Sepharose (Pharmacia LKB Biotechnology Inc., Piscataway, N.J., USA) which had been preequilibrated with 100 ml of dialysis buffer supplemented with 0.05M NaCl. The column was washed with an additional 50 ml of dialysis buffer plus 0.05M NaCl followed by a gradient from 0.05M to 0.25M NaCl prepared in dialysis buffer. The enzyme activity was eluted with a linear gradient of 0.25 to 1.0M NaCl prepared in the dialysis buffer. Fractions containing 4 to 5 ml volumes of column eluate were collected and analyzed for farnesyl protein transferase activity. Fractions with enzyme activity were pooled and supplemented with 100 μM ZnCl2. Enzyme samples were stored frozen at -70° C. The activity of farnesyl protein transferase was measured using the Farnesyl Transferase [^3 H] Scintillation Proximity Assay (Amersham International plc., England) under the conditions specified by the manufacturer. […] The reaction mixture was warmed to 37° C. The enzyme reaction was started by adding 20 μl of diluted human farnesyl protein transferase. […] Reactions were terminated by the addition of STOP/scintillation proximity bead reagent (Amersham). The reaction product [^3 H]-farnesyl-(Cys)-biotin lamin B peptide was captured on the streptavidin linked scintillation proximity bead. The amount of [^3 H]-farnesyl-(Cys)-biotin lamin B peptide synthesized in the presence or absence of test compounds was quantified as cpm by counting on a Wallac Model 1480 Microbeta Liquid Scintillation Counter. The cpm of product was considered to be farnesyl protein transferase activity. The protein farnesyl transferase activity observed in the presence of test compound was normalized to farnesyl transferase activity in the presence of 10% DMSO and expressed as per cent inhibition. […] W. Johnson Pharmaceutical Research Institue (Spring House, Pa., USA) on a VAX computer.
(In general: In a scintillation proximity assay essentially only radioactivity close to the scintillant gives light.)
On to `O=c1cc(-c2ccccc2)c2cc(C(c3ccccc3)n3ccnc3)ccc2[nH]1` (racemic) [Compound 1, (±)-6-[(1H-imidazol-1-yl)phenylmethyl]-4-phenyl-2(1H)-quinolinone], for which the IC50 came to 930 nM.
As to `Cn1c(=O)cc(-c2ccccc2)c2cc(C(c3ccc(Cl)cc3)n3ccnc3)ccc21` (racemic) [Compound 8, (±)-6-[(4-chlorophenyl)-1H-imidazol-1-yl-methyl]-1-methyl-4-phenyl-2(1H)-quinolinone], the IC50 was found to be 70 nM.
For the compound `COC(=O)C(CC(C)C)NC(=O)Cn1c(=O)cc(-c2ccccc2)c2cc(C(c3ccc(Cl)cc3)n3ccnc3)ccc21` (racemic) [Compound 39], the IC50 is 47 nM.
Consider `O=C1CC(c2ccccc2)c2cc(C(c3ccc(Cl)cc3)n3ccnc3)ccc2N1` (racemic) [Compound 57, (±)-6-[(4-chlorophenyl)-1H-imidazol-1-ylmethyl]-3,4-dihydro-4-phenyl-2(1H)-quinolinone], for which the IC50 came to 1200 nM.
On to `Cn1c(=O)cc(-c2ccccc2)c2cc(C(CO)(c3ccc(Cl)cc3)n3ccnc3)ccc21` (racemic) [Compound 59, (±)-6-[1-(4-chlorophenyl)-2-hydroxy-1-(1H-imidazol-1-yl)ethyl]-1-methyl-4-phenyl-2(1H)-quinolinone monohydrate], for which the IC50 stood at 13 nM.
For `Cn1c(=O)cc(-c2cccc(Cl)c2)c2cc(C(C)(c3ccc(Cl)cc3)n3ccnc3)ccc21` (racemic) [Compound 62, (±)-4-(3-chlorophenyl)-6-[1-(4-chlorophenyl)-1-(1H-imidazol-1-yl)ethyl]-1-methyl-2(1H)-quinolinone], the IC50 was determined as 22 nM.
Same read-out and setting: next, `Oc1cc(-c2ccccc2)c2cc(C(c3ccc(Cl)cc3)n3ccnc3)ccc2n1` (single isomer, unassigned; (-)) [Compound 7, (-)-(B)-6-[(4-chlorophenyl)-1H-imidazol-1-ylmethyl]-4-phenyl-2(1H)-quinolinone]: 110 nM; `O=c1cc(-c2ccccc2)c2cc(C(c3ccc(Cl)cc3)n3ccnc3)ccc2[nH]1` (centres unmarked) [Compound 2]: 180 nM; `O=c1cc(-c2ccccc2)c2cc(C(c3cccc(Cl)c3)n3ccnc3)ccc2[nH]1` (centres unmarked) [Compound 3]: 1400 nM.
Turning to `O=c1cc(-c2ccccc2)c2cc(C(c3ccc(F)cc3)n3ccnc3)ccc2[nH]1` (centres unmarked) [Compound 4], the IC50 was 315 nM.
As for `O=c1cc(-c2ccccc2)c2cc(C(c3ccc(Cl)cc3)n3ccnc3)ccc2n1Cc1ccccc1` (centres unmarked) [Compound 10], the IC50 amounted to 220 nM.
Regarding `O=c1cc(-c2ccc(Cl)cc2)c2cc(C(c3ccc(Cl)cc3)n3ccnc3)ccc2[nH]1` (centres unmarked) [Compound 11], the IC50 came to 320 nM.
Regarding `O=c1cc(-c2ccccc2Cl)c2cc(C(c3ccc(Cl)cc3)n3ccnc3)ccc2[nH]1` (centres unmarked) [Compound 12], the IC50 was 3200 nM.
As to `O=c1cc(-c2cccc(Cl)c2)c2cc(C(c3ccc(Cl)cc3)n3ccnc3)ccc2[nH]1` (centres unmarked) [Compound 13, 4-(3-chlorophenyl)-6-[(4-chlorophenyl)-1H-imidazol-1-ylmethyl]-2(1H)-quinolinone], the IC50 came out at 34 nM.
Turning to `CCCn1c(=O)cc(-c2ccccc2)c2cc(C(c3ccc(Cl)cc3)n3ccnc3)ccc21` (centres unmarked) [Compound 14], the IC50 came to 700 nM.
Turning to `Cn1c(=O)cc(-c2cccc(Cl)c2)c2cc(C(c3ccc(Cl)cc3)n3ccnc3)ccc21` (centres unmarked) [Compound 15, 4-(3-chlorophenyl)-6-[(4-chlorophenyl)-1H-imidazol-1-ylmethyl]-1-methyl-2(1H)-quinolinone], the IC50 is 16 nM.
`CCOC(=O)Cn1c(=O)cc(-c2ccccc2)c2cc(C(c3ccc(Cl)cc3)n3ccnc3)ccc21` (centres unmarked) [Compound 17]: the IC50 is 230 nM.
Take `Cc1cccc(-c2cc(=O)[nH]c3ccc(C(c4ccc(Cl)cc4)n4ccnc4)cc23)c1` (centres unmarked) [Compound 18]: the IC50 was 40 nM.
Still for that read-out and setting: the value for `O=c1cc(-c2cccc(C(F)(F)F)c2)c2cc(C(c3ccc(Cl)cc3)n3ccnc3)ccc2[nH]1` (centres unmarked) [Compound 20] was 240 nM.
For `O=c1cc(-c2cccc(F)c2)c2cc(C(c3ccc(Cl)cc3)n3ccnc3)ccc2[nH]1` (centres unmarked) [Compound 21], the IC50 was found to be 150 nM.
With `COc1cccc(-c2cc(=O)[nH]c3ccc(C(c4ccc(Cl)cc4)n4ccnc4)cc23)c1` (centres unmarked) [Compound 24], the IC50 worked out at 32 nM.
For the compound `Cc1ccc(C(c2ccc3[nH]c(=O)cc(-c4ccccc4)c3c2)n2ccnc2)cc1` (centres unmarked) [Compound 25], the IC50 came out at 262 nM.
With `O=c1cc(-c2ccc(Cl)c(Cl)c2)c2cc(C(c3ccc(Cl)cc3)n3ccnc3)ccc2[nH]1` (centres unmarked) [Compound 26], the IC50 was 227 nM.
As for `Cc1ccc(-c2cc(=O)[nH]c3ccc(C(c4ccc(Cl)cc4)n4ccnc4)cc23)cc1` (centres unmarked) [Compound 27], the IC50 was found to be 193 nM.
Take `Cc1ccccc1-c1cc(=O)[nH]c2ccc(C(c3ccc(Cl)cc3)n3ccnc3)cc12` (centres unmarked) [Compound 28]: the IC50 was 2200 nM.
`COc1ccc(CCn2c(=O)cc(-c3ccccc3)c3cc(C(c4ccc(Cl)cc4)n4ccnc4)ccc32)cc1` (centres unmarked) [Compound 29]: the IC50 amounted to 2400 nM.
Consider `O=c1cc(-c2cccc(Br)c2)c2cc(C(c3ccc(Cl)cc3)n3ccnc3)ccc2[nH]1` (centres unmarked) [Compound 30], for which the IC50 is 21 nM.
In the case of `O=c1cc(-c2ccccc2)c2cc(C(c3ccc(Cl)cc3Cl)n3ccnc3)ccc2[nH]1` (centres unmarked) [Compound 31], the IC50 turned out to be 480 nM.
For the compound `O=c1cc(-c2ccccc2)c2cc(C(c3ccccc3Cl)n3ccnc3)ccc2[nH]1` (centres unmarked) [Compound 32], the IC50 came out at 530 nM.
On to `COc1ccc(C(c2ccc3[nH]c(=O)cc(-c4ccccc4)c3c2)n2ccnc2)cc1` (centres unmarked) [Compound 33], for which the IC50 came out at 850 nM.
Still for that read-out and setting: the value for `O=c1cc(-c2ccccc2)c2cc(C(c3ccc(Cl)c(Cl)c3)n3ccnc3)ccc2[nH]1` (centres unmarked) [Compound 34] was 600 nM; that for `O=c1cc(-c2cc(Cl)cc(Cl)c2)c2cc(C(c3ccc(Cl)cc3)n3ccnc3)ccc2[nH]1` (centres unmarked) [Compound 37] was 96 nM.
Turning to `O=c1cc(-c2ccccc2)c2cc(C(c3ccc(Cl)cc3)n3cnc(-c4ccccc4)c3)ccc2[nH]1` (centres unmarked) [Compound 47], the IC50 is 105 nM.
The same measure, in the same setting: the value for `Cc1cncn1C(c1ccc(Cl)cc1)c1ccc2[nH]c(=O)cc(-c3ccccc3)c2c1` (centres unmarked) [Compound 49] was 300 nM; that for `Cc1cncn1C(c1ccc(Cl)cc1)c1ccc2[nH]c(=O)cc(-c3cccc(Cl)c3)c2c1` (centres unmarked) [Compound 53] was 32 nM.
Consider `CC(c1ccc(Cl)cc1)(c1ccc2[nH]c(=O)cc(-c3ccccc3)c2c1)n1ccnc1` (centres unmarked) [Compound 58], for which the IC50 was 270 nM.
`CCCC(c1ccc(Cl)cc1)(c1ccc2c(c1)c(-c1cccc(Cl)c1)cc(=O)n2C)n1ccnc1` (centres unmarked) [Compound 65]: the IC50 worked out at 51 nM.

For the next assay, the system named is NIH 3T3 cells transformed by the T24 activated human H-ras gene. The experiment in a line: Ras-Transformed Cell Phenotype Reversion Assay. Format: cell-based, mouse. To be noted: NIH3T3; Table 8; T24 H-ras transformed NIH 3T3 cells; 72 hours; cell counts. The source says: "Ras-Transformed Cell Phenotype Reversion Assay" Insertion of activated oncogenes such as the mutant ras gene into mouse NIH 3T3 cells converts the cells to a transformed phenotype. The cells become tumorigenic, display anchorage independent growth in semi-solid medium and lose contact inhibition. Loss of contact inhibition produces cell cultures which no longer form uniform monolayers. Rather, the cells pile up into multicellular nodules and grow to very high saturation densities in plastic tissue culture dishes. Agents such as protein farnesyl transferase inhibitors which revert the ras transformed phenotype restore the uniform monolayer growth pattern to cells in culture. This reversion is easily monitored by counting the number of cells in tissue culture plates. Transformed cells will achieve higher cell numbers than cells which have reverted to an untransformed phenotype. Compounds which revert the transformed phenotype should produce antitumor effects in tumors bearing ras gene mutations. Method Compounds are screened in tissue culture in NIH 3T3 cells transformed by the T24 activated human H-ras gene. Cells are seeded at an initial density of 200,000 cells per well (9.6 cm^2 surface area) in six-well cluster tissue culture plates. Test compounds are immediately added to 3.0 ml cell growth mediuim in a 3.0 μl volume of DMSO, with a final concentration of DMSO in the cell growth medium of 0.1%. […] Then the cells are detached in 1.0 ml trypsin-EDTA cell dissociation medium and counted on a Coulter particle counter. Measurements Cell numbers expressed as cells per well are measured using a Coulter Particle Counter. All cell counts were corrected for the initial cell input density by subtracting 200,000. Control cell counts=[cell counts from cells incubated with DMSO vehicle--200,000] Test compound cell counts=[cell counts from cells incubated with test compound--200,000]. [formula]
On to `CCCOc1cccc(-c2cc(=O)n(C)c3ccc(C(c4ccc(Cl)cc4)n4ccnc4)cc23)c1` (racemic) [Compound 74, (±)-6-[(4-chlorophenyl)-1H-imidazol-1-ylmethyl]-1-methyl-4-(3-propoxyphenyl)-2(1H)-quinolinone ethanedioate (2:3).sesquihydrate], for which the IC50 was 500 nM.
